Measurements from patent US20240174671A1, “New 2,3-Dihydro-1H-pyrrolo[3,2-b]pyridine Derivatives as Sigma Ligands” (ACONDICIONAMIENTO TARRASENSE, priority 2021, published 2024).

Experiments:
[1] = molecular target: T1, human σ1 receptor (Homo sapiens, UniProt Q99720); assay: Human σ1 receptor radioligand assay ([3H](+)-pentazocine); assay type: binding; settings: transfected HEK-293 membranes, 5 nM [3H](+)-pentazocine, 37° C., 120 minutes; read-out: Binding σ-[…] (binding to σ1-receptor expressed as Ki)
T1 construct: expressed in transfected cells; host or cells: HEK-293
T1 sequence (Q99720 whole entry): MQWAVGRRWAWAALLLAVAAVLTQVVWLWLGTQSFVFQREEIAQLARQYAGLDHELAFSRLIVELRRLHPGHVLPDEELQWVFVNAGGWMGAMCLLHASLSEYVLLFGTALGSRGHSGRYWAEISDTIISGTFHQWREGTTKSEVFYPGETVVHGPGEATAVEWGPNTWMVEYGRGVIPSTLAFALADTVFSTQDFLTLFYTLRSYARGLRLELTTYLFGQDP
Procedure: Human σ1 Receptor Radioligand Assay
(§1) NBS (non-specific binding) was measured by adding 10 μM haloperidol. The binding of the test compound was measured at either one concentration (% inhibition at 1 or 10 µM) or five different concentrations to determine affinity values (Ki). Plates were incubated at 37° C. for 120 minutes. After the incubation period, the reaction mix was then transferred to MultiScreen HTS, FC plates (Millipore), filtered and plates were washed 3 times with ice-cold 10 mM Tris-HCL (pH7.4). Filters were dried and counted at approximately 40% efficiency in a MicroBeta scintillation counter (Perkin-Elmer) using EcoScint liquid scintillation cocktail.

[2] = molecular target: T2, human σ2/TMEM97 receptor (Homo sapiens, UniProt Q5BJF2); assay: Binding assay to human σ2/TMEM97 receptor ([3H]-DTG); settings: transfected HEK-293 membranes, 10 nM [3H]-DTG, 25° C., 120 minutes; read-out: Binding σ-[…] (binding to σ2-receptor expressed as Ki)
T2 construct: expressed in transfected cells; host or cells: HEK-293
T2 sequence (Q5BJF2 whole entry): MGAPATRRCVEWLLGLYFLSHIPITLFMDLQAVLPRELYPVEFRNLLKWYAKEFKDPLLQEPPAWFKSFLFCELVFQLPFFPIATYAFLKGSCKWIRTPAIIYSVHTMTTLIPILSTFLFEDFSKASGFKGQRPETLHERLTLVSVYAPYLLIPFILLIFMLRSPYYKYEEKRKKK
Procedure: Binding Assay to Human σ2/TMEM97 Receptor.
as §1, with “Transfected HEK-293 membranes (15 μg) were incubated with 10 nM [^3H]-1,3-Di-o-tolylguanidine (DTG) in assay buffer containing Tris-HCl 50 mM at pH 8.0. NSB” for “NBS”, “25°” for “37°”, “was” for “was then”, “and” for “and plates were”, “(pH 8.0).” for “(pH7.4).”

Structure (SMILES)	Ki [1] [nM]	Ki [2] [nM]
Cc1ccc2c(n1)C(C)(C)CN2C(=O)N1CCC2(CCN(Cc3cccc(S(C)(=O)=O)c3)CC2)C1 [Example 102, (8-(3-(methylsulfonyl)benzyl)-2,8-diazaspiro[4.5]decan-2-yl)(3,3,5-trimethyl-2,3-dihydro-1H-pyrrolo[3,2-b]pyridin-1-yl)methanone]	> 1000	< 100
COc1cccc(CN(C)C2CCN(C(=O)N3CC(C)(C)c4nc(C)ccc43)CC2)c1 [Example 59]	500 to 1000	< 100
CC1(C)CN(C(=O)N2CCC3(CCN(Cc4ccc(C#N)c(F)c4)CC3)CC2)c2cccnc21 [Example 146, 4-((9-(3,3-dimethyl-2,3-dihydro-1H-pyrrolo[3,2-b]pyridine-1-carbonyl)-3,9-diazaspiro[5.5]undecan-3-yl)methyl)-2-fluorobenzonitrile]	< 100	100 to 500
Cc1ccc2c(n1)C(C)(C)CN2C(=O)[C@H]1CC[C@H](N(C)Cc2cccc(F)c2)CC1 [Example 169, ((1r,4r)-4-((3-fluorobenzyl)(methyl)amino)cyclohexyl)(3,3,5-trimethyl-2,3-dihydro-1H-pyrrolo[3,2-b]pyridin-1-yl)methanone]	< 100	< 100
Cc1nc2c(cc1F)N(C(=O)NC[C@@H](c1ccccc1)N(C)C)CC2(C)C [Example 16, (R)—N-(2-(dimethylamino)-2-phenylethyl)-6-fluoro-3,3,5-trimethyl-2,3-dihydro-1H-pyrrolo[3,2-b]pyridine-1-carboxamide]	< 100	> 1000
Cc1ccc2c(n1)C(C)(C)CN2C(=O)NC1CCN(Cc2ccc(C#N)cc2)CC1 [Example 24, N-(1-(4-cyanobenzyl)piperidin-4-yl)-3,3,5-trimethyl-2,3-dihydro-1H-pyrrolo[3,2-b]pyridine-1-carboxamide]	< 100	> 1000
COc1cccc([C@H](CNC(=O)N2CC(C)(C)c3nc(C)ccc32)N(C)C)c1 [Example 35, (R)—N-(2-(dimethylamino)-2-(3-methoxyphenyl)ethyl)-3,3,5-trimethyl-2,3-dihydro-1H-pyrrolo[3,2-b]pyridine-1-carboxamide]	100 to 500	> 1000
Cc1ccc2c(n1)C(C)(C)CN2C(=O)N1CCC(N(C)Cc2cccc(S(C)(=O)=O)c2)CC1 [Example 56, (4-(methyl(3-(methylsulfonyl)benzyl)amino)piperidin-1-yl)(3,3,5-trimethyl-2,3-dihydro-1H-pyrrolo[3,2-b]pyridin-1-yl)methanone]	> 1000	500 to 1000
CC1(C)CN(C(=O)N2CCC3(CCN(Cc4ncccc4F)CC3)C2)c2cccnc21 [Example 153]	> 1000	100 to 500
CC1(C)CN(C(=O)N2CCC3(CCN(CC4CCOCC4)CC3)C2)c2cccnc21 [Example 144, (3,3-dimethyl-2,3-dihydro-1H-pyrrolo[3,2-b]pyridin-1-yl)(8-((tetrahydro-2H-pyran-4-yl)methyl)-2,8-diazaspiro[4.5]decan-2-yl)methanone]	100 to 500	< 100
Cc1ccc2c(n1)C(C)(C)CN2C(=O)[C@H]1CC[C@H](N(C)Cc2c(F)cccc2F)CC1 [Example 171, ((1r,4r)-4-((2,6-difluorobenzyl)(methyl)amino)cyclohexyl)(3,3,5-trimethyl-2,3-dihydro-1H-pyrrolo[3,2-b]pyridin-1-yl)methanone]	< 100	< 100
CN(C)C(CNC(=O)N1CC(C)(C)c2nc(C(F)(F)F)ccc21)c1ccccc1 (stereo not drawn) [Example 3, N-(2-(dimethylamino)-2-phenylethyl)-3,3-dimethyl-5-(trifluoromethyl)-2,3-dihydro-1H-pyrrolo[3,2-b]pyridine-1-carboxamide]	100 to 500	> 1000
Cc1ccc2c(n1)C(C)(C)CN2C(=O)N1CCC2(CCN(Cc3ccc(C#N)c(F)c3)CC2)CC1 [Example 163, 2-fluoro-4-((9-(3,3,5-trimethyl-2,3-dihydro-1H-pyrrolo[3,2-b]pyridine-1-carbonyl)-3,9-diazaspiro[5.5]undecan-3-yl)methyl)benzonitrile]	100 to 500	100 to 500
Cc1ccc2c(n1)C(C)(C)CN2C(=O)N1CCC(N(C)Cc2ccc(C#N)cc2)CC1 [Example 117, 4-((methyl(1-(3,3,5-trimethyl-2,3-dihydro-1H-pyrrolo[3,2-t]pyridine-1-carbonyl)piperidin-4-yl)amino)methyl)benzonitrile]	100 to 500	< 100
Cc1ccc2c(n1)C(C)(C)CN2C(=O)NC1CCN(Cc2ccc(F)c(F)c2)CC1 [Example 44, N-(1-(3,4-difluorobenzyl)piperidin-4-yl)-3,3,5-trimethyl-2,3-dihydro-1H-pyrrolo[3,2-b]pyridine-1-carboxamide]	< 100	> 1000

Other lines, results leading:

Ki [1] [nM]	Ki [2] [nM]	Structure (SMILES)
< 100	< 100	CC1(C)CN(C(=O)N2CCC3(CCN(Cc4ccc(C#N)cc4)CC3)C2)c2cccnc21 [Example 151, 4-((2-(3,3-dimethyl-2,3-dihydro-1H-pyrrolo[3,2-b]pyridine-1-carbonyl)-2,8-diazaspiro[4.5]decan-8-yl)methyl)benzonitrile]
< 100	< 100	CN(Cc1ccccc1)[C@H]1CC[C@@H](NC(=O)N2CC(C)(C)c3ncccc32)CC1 [Example 72, N-((1s,4s)-4-(benzyl(methyl)amino)cyclohexyl)-3,3-dimethyl-2,3-dihydro-1H-pyrrolo[3,2-b]pyridine-1-carboxamide]
< 100	100 to 500	CN(Cc1ccccc1)C1CCN(C(=O)N2CCc3ncccc32)CC1 [Example 51, (4-(benzyl(methyl)amino)piperidin-1-yl)(2,3-dihydro-1H-pyrrolo[3,2-b]pyridin-1-yl)methanone]
100 to 500	< 100	Cc1ccc2c(n1)C(C)(C)CN2C(=O)NCC1CN(Cc2ccccc2)C1 [Example 82, N-((1-benzylazetidin-3-yl)methyl)-3,3,5-trimethyl-2,3-dihydro-1H-pyrrolo[3,2-b]pyridine-1-carboxamide]
< 100	100 to 500	CC1(C)CN(C(=O)N2CC3(CCN(Cc4ccccc4)CC3)C2)c2cccnc21 [Example 159, (7-benzyl-2,7-diazaspiro[3.5]nonan-2-yl)(3,3-dimethyl-2,3-dihydro-1H-pyrrolo[3,2-b]pyridin-1-yl)methanone]
< 100	< 100	CN(Cc1ccccc1)[C@H]1CC[C@@H](C(=O)N2CC(C)(C)c3ncccc32)CC1 [Example 127, ((1s,4s)-4-(benzyl(methyl)amino)cyclohexyl)(3,3-dimethyl-2,3-dihydro-1H-pyrrolo[3,2-b]pyridin-1-yl)methanone]
100 to 500	100 to 500	Cc1ccc2c(n1)C(C)(C)CN2C(=O)[C@H]1C[C@@H](NCc2ccccc2)C1 [Example 136, ((1s,3s)-3-(benzylamino)cyclobutyl)(3,3,5-trimethyl-2,3-dihydro-1H-pyrrolo[3,2-b]pyridin-1-yl)methanone]
< 100	100 to 500	Cc1ccc2c(n1)C(C)(C)CN2C(=O)CC1CCN(Cc2ccccc2)CC1 [Example 130, 2-(1-benzylpiperidin-4-yl)-1-(3,3,5-trimethyl-2,3-dihydro-1H-pyrrolo[3,2-b]pyridin-1-yl)ethanone]
> 1000	100 to 500	O=C(N1CCC[C@H](NCCc2ccccc2)C1)N1CCc2ncccc21 [Example 101, (S)-(2,3-dihydro-1H-pyrrolo[3,2-b]pyridin-1-yl)(3-(phenethylamino)piperidin-1-yl)methanone]
